Assay results published in PubChem BioAssay (NCI).
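Test compounds were applied to cells in 96-well plates for 48 hours at 5 doses. GI50 = concentration required for 50% inhibition of growth. TGI is the concentration that stops growth completely.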

How the values were obtained:
Test in all cases: growth of human tumour cells (NCI), 48 h
[1] = system: UO-31 renal
[2] = system: SK-MEL-5 melanoma
[3] = system: HCT-116 colon
[4] = system: A549 NSCLC
[5] = system: EKVX NSCLC
[6] = system: CAKI-1 renal
[7] = system: HOP-62 NSCLC
[8] = system: M14 melanoma
[9] = system: SK-MEL-28 melanoma
[10] = system: NCI-H23 lung

Nc1cccc2cc(S(=O)(=O)Nc3ccc(C(=O)O)cc3)ccc12
TGI [1]: > 100 µM
TGI [2]: > 100 µM
TGI [3]: > 100 µM
TGI [4]: > 100 µM
TGI [5]: > 100 µM
TGI [6]: > 100 µM
TGI [7]: > 100 µM
TGI [8]: > 100 µM
TGI [9]: > 100 µM
TGI [10]: > 100 µM

CC[n+]1c(/C=C/c2ccc(N(CCCl)CCCl)cc2)ccc2cc(Br)ccc21
GI50 [1]: 1470 µM
GI50 [2]: 135 µM
TGI [3]: 482 µM
GI50 [4]: 1370 µM
GI50 [5]: 1060 µM
GI50 [6]: 1650 µM
GI50 [7]: 954 µM
TGI [8]: 4.19 µM
TGI [9]: 2.52 µM
GI50 [10]: 172 µM

CCN(CC)CCSc1nc2c([N+](=O)[O-])cccc2[nH]1
TGI [2]: > 100 µM
TGI [4]: > 100 µM
TGI [5]: > 100 µM
TGI [6]: > 100 µM
TGI [8]: > 100 µM
TGI [9]: > 100 µM
TGI [10]: > 100 µM

CNC1=C(C)C(=O)C2=C(C1=O)C(COC(N)=O)C1(OC)C3NC3CN21 (stereo unspecified)
TGI [1]: 7.4 µM
TGI [2]: 0.268 µM
TGI [3]: > 100 µM
TGI [4]: > 100 µM
TGI [5]: > 100 µM
TGI [6]: 2.78 µM
TGI [7]: 2.38 µM
TGI [8]: 2.01 µM
TGI [9]: 6.43 µM

N=C1SCCS1
TGI [1]: > 100 µM
TGI [2]: > 100 µM
TGI [3]: > 100 µM
TGI [4]: > 100 µM
TGI [5]: > 100 µM
TGI [6]: > 100 µM
TGI [7]: > 100 µM
TGI [8]: > 100 µM
TGI [9]: > 100 µM
TGI [10]: > 100 µM

O=C(Nc1ccc(-n2cc(-c3ccncc3)c(-c3ccc(O)c(Cl)c3)n2)cc1)c1ccc(Cl)c(Cl)c1
GI50 [1]: 1.8 µM
TGI [1]: > 32.5 µM
GI50 [2]: 1 µM
TGI [2]: > 32.5 µM
GI50 [3]: 1.23 µM
TGI [3]: > 32.5 µM
GI50 [4]: 2.87 µM
TGI [4]: > 32.5 µM
GI50 [5]: 30.5 µM
TGI [5]: > 32.5 µM
GI50 [6]: 2.21 µM
TGI [6]: > 32.5 µM
GI50 [7]: 2 µM
TGI [7]: > 32.5 µM
GI50 [8]: 0.668 µM
TGI [8]: 1.52 µM
GI50 [9]: > 32.5 µM
TGI [9]: > 32.5 µM
GI50 [10]: 2.18 µM
TGI [10]: > 32.5 µM

NC(N)=NCCCS(=O)(=O)Nc1ccc(Nc2c3ccccc3nc3cc([N+](=O)[O-])ccc23)cc1
TGI [1]: > 100 µM
TGI [2]: 45.3 µM
TGI [3]: 63.5 µM
TGI [4]: 36.6 µM
TGI [5]: 70.7 µM
TGI [6]: > 93.5 µM
TGI [7]: 39.3 µM
TGI [8]: > 87.2 µM
TGI [9]: 40.7 µM
TGI [10]: 35.6 µM

Cc1ccc(CCCC(=O)O)cc1C
TGI [1]: > 100 µM
TGI [2]: > 100 µM
TGI [3]: > 100 µM
TGI [4]: > 100 µM
TGI [5]: > 100 µM
TGI [6]: > 100 µM
TGI [7]: > 100 µM
TGI [8]: > 100 µM
TGI [9]: > 100 µM
TGI [10]: > 100 µM

N=C(N)c1ccc(-c2ccc(-c3ccccc3)o2)cc1
GI50 [1]: 1.79 µM
TGI [1]: 3.53 µM
GI50 [2]: 1.94 µM
TGI [2]: 3.72 µM
GI50 [4]: 2.51 µM
TGI [4]: 6.24 µM
GI50 [5]: 2.61 µM
TGI [5]: 11.8 µM
GI50 [6]: 2.78 µM
TGI [6]: 9.85 µM
GI50 [7]: 1.98 µM
TGI [7]: 5.13 µM
GI50 [8]: 1.77 µM
TGI [8]: 3.66 µM
GI50 [9]: 1.67 µM
TGI [9]: 3.35 µM
GI50 [10]: 3.37 µM
TGI [10]: 14.8 µM

O=C(c1no[n+]([O-])c1C(=O)c1csc2ccccc12)c1csc2ccccc12
TGI [1]: 1.02 µM
TGI [2]: 26.1 µM
TGI [3]: 25.9 µM
TGI [4]: 35.7 µM
TGI [5]: 12.5 µM
TGI [6]: 2.23 µM
TGI [7]: 25.4 µM
TGI [8]: 22.4 µM
TGI [9]: 11 µM
TGI [10]: 32 µM

CC(C)c1cccc(C(C)C)c1NC(=S)Nc1ccccc1
TGI [1]: > 100 µM
TGI [2]: > 100 µM
TGI [3]: > 100 µM
TGI [4]: > 100 µM
TGI [5]: > 100 µM
TGI [7]: > 100 µM
TGI [8]: > 100 µM
TGI [9]: > 100 µM
TGI [10]: > 100 µM

N/C(=N/O)c1cn(C2OC(CO)C(O)C2O)c2ncnc(NO)c12 (stereo unspecified)
TGI [2]: 0.892 µM
TGI [3]: > 77.4 µM
TGI [4]: > 100 µM
TGI [5]: > 100 µM
TGI [7]: > 100 µM
TGI [8]: 2.88 µM
TGI [9]: > 51.3 µM
TGI [10]: 2.29 µM

CSc1nc(NC2OC(CO)C(O)C(O)C2O)c(N)c(=O)n1C (stereo unspecified)
TGI [1]: > 100 µM
TGI [2]: > 100 µM
TGI [3]: > 100 µM
TGI [4]: > 100 µM
TGI [5]: > 100 µM
TGI [7]: > 100 µM
TGI [9]: > 100 µM
TGI [10]: > 100 µM

COc1cccc(/C=N/[N-]C(N)=O)c1[O-].[OH3+].[Zn+2]
TGI [1]: > 100 µM
TGI [2]: > 100 µM
TGI [3]: > 100 µM
TGI [4]: > 100 µM
TGI [5]: > 100 µM
TGI [6]: > 100 µM
TGI [7]: > 100 µM
TGI [8]: > 100 µM
TGI [9]: > 100 µM
TGI [10]: > 100 µM

NC(=O)OCc1c(O)c2c(c(O)c1COC(N)=O)C(=O)C=CC2=O
TGI [1]: > 100 µM
TGI [2]: > 100 µM
TGI [3]: > 100 µM
TGI [4]: > 100 µM
TGI [5]: > 100 µM
TGI [6]: > 100 µM
TGI [7]: > 100 µM
TGI [8]: > 100 µM
TGI [9]: > 100 µM
TGI [10]: > 100 µM

CCCCCCCCCCCCCCCc1ccc(C(=O)C[n+]2ccccc2)cc1
GI50 [2]: 1.44 µM
TGI [2]: 3.93 µM
GI50 [4]: 0.731 µM
TGI [4]: 2.03 µM
GI50 [5]: 1.82 µM
TGI [5]: 8.72 µM
GI50 [6]: 1.01 µM
TGI [6]: 3.45 µM
GI50 [9]: 1.21 µM
TGI [9]: 2.99 µM
GI50 [10]: 0.502 µM
TGI [10]: 1.79 µM

COc1ccc(C2C(Cl)C(=O)N2NC(=O)c2ccc(NC(C)=O)cc2)cc1OC (stereo unspecified)
TGI [1]: > 100 µM
TGI [2]: > 100 µM
TGI [3]: > 100 µM
TGI [4]: > 100 µM
TGI [7]: > 100 µM
TGI [9]: > 100 µM
TGI [10]: > 100 µM

CC(C)=CCC/C(C)=C/CC/C(C)=C/C(O)c1ccccc1 (stereo unspecified)
TGI [1]: 36.3 µM
TGI [2]: 30.2 µM
TGI [3]: 32.2 µM
TGI [5]: 34.3 µM
TGI [6]: > 10 µM
TGI [7]: 34.3 µM
TGI [8]: 32.7 µM
TGI [10]: 55.8 µM
